Here are results for eight compounds from patent publication US10344026B2, “Compositions and methods of targeting mutant K-ras” (NANTBIO, INC., priority 2017, dated 2019).

SMILES strings stand for the structures.

Format in all cases: cell-based
Assay [1] has as its system phospho-ERK in A375 (Wild-type). The assay can be described thus: In-Cell Western phospho-ERK, A375. To be noted: Homo sapiens, A-375, 1 h; A375, one hour treatment; read-out: In-Cell Western A375 (Wild-type) Erk (P). Put shortly: (§1)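 Read-out: imaged cellular fluorescence after phospho-ERK/phospho-Akt immunostaining; EC50 derived. Cells plated 3000/well, 18 hr 37° C, compound 1 hr, 0.5% DMSO. Full-inhibition controls: 1 uM BEZ235 (pAkt), 1 uM MEK Inhibitor II (pERK).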

Assay [2] concerns phospho-ERK in HCC827 (Wild-type). The assay can be described thus: In-Cell Western phospho-ERK, HCC827. To be noted: Homo sapiens, 1 h; HCC827, one hour treatment; read-out: In-Cell Western HCC827 (Wild-type) Erk (P). Put shortly: as §1
In assay [3] the test system is phospho-Akt in A375 (Wild-type). The assay can be described thus: In-Cell Western phospho-Akt, A375. As to conditions: Homo sapiens, A-375, 1 h; A375, one hour treatment; read-out: In-Cell Western A375 (Wild-type) Akt (P). In a few lines:
as §1

For assay [4], the system named is phospho-Akt in Panc1 (G12D). Kind of assay: In-Cell Western phospho-Akt, Panc1. To be noted: Homo sapiens, PANC-1, 1 h; Panc1, one hour treatment; read-out: In-Cell Western Panc1 (G12D) Akt (P). Put shortly:
as §1

The test system of a further assay is HCT116-G31D. The assay can be described thus: Viability assay (CellTiterBlue, 72 hr) HCT116. As to conditions: Homo sapiens, HCT-116, GI50, CellTiterBlue, HCT116 K-Ras G13D, read-out: 72 hr Cell Viability HCT116 (G13D). In a few lines: (§2)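 Fluorescence at Ex550/Em590, read 3 hr after CellTiterBlue addition, served as the viability signal following 72 hr compound treatment. Wells held 1000 cells, pre-incubated 18 hr at 37 °C, with 0.5% DMSO final. GI50 derived with DMSO as 100% and 100 uM tamoxifen as 0% viability.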
(In general: Resazurin is reduced to fluorescent resorufin, in cell work by metabolically active cells.)

The target of a further assay is T1, K-Ras G12D (Homo sapiens, UniProt P01116, G12D).
T1 construct: expressed in transfected cells; host or cells: 293H cells
The assay can be described thus: G-LISA Ras activation, 293H cells transfected with G12D mutant. As to conditions: compound 1 hour. In a few lines:
(§3)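 Active Ras was quantified by G-LISA in lysates of 293H cells made the day after transfection with wild-type, G12D or G12V Ras plasmid (5 μg). Compounds were applied at 3.125-25 μM for 1 h; only the wild-type cells got a 2-min 100 ng/ml EGF pulse before lysis.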

For assay [5], the system named is phospho-Akt in HCC827 (Wild-type). The assay can be described thus: In-Cell Western phospho-Akt, HCC827. To be noted: Homo sapiens, 1 h; HCC827, one hour treatment; read-out: In-Cell Western HCC827 (Wild-type) Akt (P). Put shortly: as §1
In assay [6] the test system is Ishikawa (K-Ras wild type cell line). The assay can be described thus: Viability assay (CellTiterBlue, 72 hr) Ishikawa. As to conditions: Homo sapiens, GI50, CellTiterBlue, Ishikawa K-Ras wild-type. Put shortly: as §2
In assay [7] the test system is phospho-ERK in Panc10.05 (G12D). Kind of assay: In-Cell Western phospho-ERK, Panc10.05. As to conditions: Homo sapiens, Panc1005, 1 h; Panc10.05, one hour treatment; read-out: In-Cell Western Panc10.05 (G12D) Erk (P). Put shortly:
as §1

A further assay relates to Panc10.05-G12D. Kind of assay: Viability assay (CellTiterBlue, 72 hr) Panc10.05. To be noted: Homo sapiens, Panc1005, GI50, CellTiterBlue, Panc10.05 K-Ras G12D, read-out: 72 hr Cell Viability Panc10.05 (G12D). In a few lines:
as §2

For assay [8], the system named is A375 (K-Ras wild type cell line). The assay can be described thus: Viability assay (CellTiterBlue, 72 hr) A375. As to conditions: Homo sapiens, A-375, GI50, CellTiterBlue. In a few lines:
as §2

The subject of assay [9] is HCC827 (K-Ras wild type cell line). The assay can be described thus: Viability assay (CellTiterBlue, 72 hr) HCC827. To be noted: Homo sapiens, GI50, CellTiterBlue, HCC827 K-Ras wild-type. Put shortly: as §2
The test system of a further assay is Panc1-G12D. The assay can be described thus: Viability assay (CellTiterBlue, 72 hr) Panc1. To be noted: Homo sapiens, PANC-1, GI50, CellTiterBlue, Panc1 K-Ras G12D, read-out: 72 hr Cell Viability Panc1 (G12D). In a few lines: as §2
The subject of assay [10] is phospho-ERK in Panc1 (G12D). Kind of assay: In-Cell Western phospho-ERK, Panc1. To be noted: Homo sapiens, PANC-1, 1 h; Panc1, one hour treatment; read-out: In-Cell Western Panc1 (G12D) Erk (P). In a few lines:
as §1

Assay [11] has as its system U87-MG (K-Ras wild type cell line). The assay can be described thus: Viability assay (CellTiterBlue, 72 hr) U87-MG. To be noted: Homo sapiens, U-87 MG, GI50, CellTiterBlue, U87-MG K-Ras wild-type. In a few lines: as §2
Assay [12] deals with phospho-Akt in Panc10.05 (G12D). The assay can be described thus: In-Cell Western phospho-Akt, Panc10.05. As to conditions: Homo sapiens, Panc1005, 1 h; Panc10.05, one hour treatment; read-out: In-Cell Western Panc10.05 (G12D) Akt (P). Put shortly: as §1
The target in another assay is T2, wild type K-Ras (Homo sapiens, UniProt P01116).
T2 construct: expressed in transfected cells; host or cells: 293H cells
Kind of assay: G-LISA Ras activation, 293H cells transfected with Ras wild-type, EGF stimulated. To be noted: compound 1 hour, then 100 ng/ml EGF 2 minutes. Put shortly: as §3

T1 sequence (P01116 whole entry G12D): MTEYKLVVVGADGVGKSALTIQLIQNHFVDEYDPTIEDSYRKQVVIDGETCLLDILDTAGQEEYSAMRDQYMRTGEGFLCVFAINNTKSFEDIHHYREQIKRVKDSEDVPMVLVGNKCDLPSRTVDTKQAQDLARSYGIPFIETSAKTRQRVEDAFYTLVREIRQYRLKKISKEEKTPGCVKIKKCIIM
T2 sequence (P01116 whole entry): as the sequence (P01116 whole entry G12D) above, with D12G counted along it

As to `Cc1nc(C)c(C(=O)Nc2nc(-c3ccc4c(c3)CCC(=O)N4CCn3cncn3)cs2)o1` [Compound 108, N-(4-(1-(2-(1H-1,2,4-triazol-1-yl)ethyl)-2-oxo-1,2,3,4-tetrahydroquinolin-6-yl)thiazol-2-yl)-2,4-dimethyloxazole-5-carboxamide], the EC50 was greater than 25 µM in [1]; greater than 25 µM in assay [2]; greater than 25 µM in assay [3]; greater than 25 µM in assay [4]; greater than 25 µM in assay [5]; 21 µM in assay [7]. Further, the EC50 in assay [10] and in [12] was greater than 25 µM each time. The IC50 (in the assay with HCT116-G31D; on K-Ras G12D; in assay [6]; with Panc10.05-G12D; in assay [8]; in [9]) was greater than 25 µM each time. Further, the IC50 (in the assay on Panc1-G12D; in assay [11]) was greater than 25 µM in each case.

Regarding `COCCN1C(=O)CCc2cc(-c3csc(NC(=O)c4oc(C(C)C)nc4C)n3)ccc21` [Compound 111, 2-isopropyl-NA-(4-(1-(2-methoxyethyl)-2-oxo-1,2,3,4-tetrahydroquinolin-6-yl)thiazol-2-yl)-4-methyloxazole-5-carboxamide], the EC50 was 12 µM in assay [1]; 1.6 µM in assay [2]; greater than 25 µM in assay [3]; 16 µM in assay [4]; greater than 25 µM in assay [5]; 0.767 µM in assay [7]. The EC50 in assay [10] was found to be 1.4 µM; in assay [12], 2 µM. Further, the IC50 in the assay on HCT116-G31D was 24 µM; at K-Ras G12D it was 2.5 µM; in assay [6], 4 µM; in the assay on Panc10.05-G12D, 0.852 µM; against wild type K-Ras, 3.9 µM; in [8], 7 µM. For the same compound, the IC50 in assay [9] is 2 µM; in the assay with Panc1-G12D, 2 µM; in assay [11] it was 7 µM.

With `Cc1nn(-c2ccccc2)c(C)c1C(=O)Nc1nc(-c2ccc3c(c2)CCC(=O)N3)cs1` [Compound 53, 3,5-dimethyl-N-(4-(2-oxo-1,2,3,4-tetrahydroquinolin-6-yl)thiazol-2-yl)-1-phenyl-1H-pyrazole-4-carboxamide], the EC50 in [1] is 6 µM; in [2] it was 14 µM; in assay [3], 10 µM; in assay [4], greater than 25 µM; in assay [5], greater than 25 µM; in assay [7] it was 3 µM. For the same compound, the results for the EC50 in assay [10] and in [12] were 16 µM and 15 µM, respectively. Besides, the IC50 with HCT116-G31D is 11 µM; on K-Ras G12D, 6.7 µM; in assay [6], 13 µM; with Panc10.05-G12D, 10 µM; against wild type K-Ras, 7.7 µM; in [8], 3 µM. Moreover, the IC50 in [9] worked out at 10 µM; in the assay with Panc1-G12D it was 12 µM; in [11] it was 15 µM.

Take `Cc1nc(C)c(C(=O)Nc2nc(-c3ccc4c(c3)CCC(=O)N4Cc3cccnc3)cs2)o1` [Compound 70, 2,4-dimethyl-N-(4-(2-oxo-1-(pyridin-3-ylmethyl)-1,2,3,4-tetrahydroquinolin-6-yl)thiazol-2-yl)oxazole-5-carboxamide]: the EC50 in [2] is 22 µM; in assay [4] it was 22 µM; in [5], 19 µM; in assay [7], 25 µM; in assay [10], 10 µM; in assay [12], greater than 25 µM. The IC50 with HCT116-G31D was greater than 25 µM; at K-Ras G12D, 8.3 µM; in [6], 24 µM; in the assay on Panc10.05-G12D, 7 µM; at wild type K-Ras it was greater than 25 µM; in assay [9], greater than 25 µM. Besides, the IC50 in the assay on Panc1-G12D came out at 20 µM.

With `Cc1nc(C2CC2)oc1C(=O)Nc1nc(-c2ccc3c(c2)CCC(=O)N3Cc2cccnc2)cs1` [Compound 72, 2-cyclopropyl-4-methyl-N-(4-(2-oxo-1-(pyridin-3-ylmethyl)-1,2,3,4-tetrahydroquinolin-6-yl)thiazol-2-yl)oxazole-5-carboxamide], the EC50 in [2] worked out at 14 µM; in assay [4], 2 µM; in assay [5], 19 µM; in assay [7], 5 µM; in assay [10], 3 µM; in assay [12], 19 µM. Also, the IC50 is greater than 25 µM with HCT116-G31D; 8 µM against K-Ras G12D; 2 µM in assay [6]; 2 µM in the assay with Panc10.05-G12D; 8 µM at wild type K-Ras; greater than 25 µM in [9]. In the assay with Panc1-G12D, the IC50 was found to be 13 µM.

Regarding `COCCN1C(=O)CCc2cc(-c3csc(NC(=O)c4c(C)nn(C(C)C)c4C)n3)ccc21` [Compound 118, 1-isopropyl-N-(4-(1-(2-methoxyethyl)-2-oxo-1,2,3,4-tetrahydroquinolin-6-yl)thiazol-2-yl)-3,5-dimethyl-1H-pyrazole-4-carboxamide], the EC50 in [1] is 10 µM; in assay [2] it was 1.2 µM; in assay [3], 23 µM; in assay [4] it was 26 µM; in [5] it was greater than 25 µM; in assay [7], 0.969 µM. Besides, the EC50 in assay [10] came to 6 µM; in [12], 2 µM. Further, the IC50 amounted to 18 µM with HCT116-G31D; 4.3 µM on K-Ras G12D; 4 µM in assay [6]; 0.854 µM with Panc10.05-G12D; 9 µM in assay [8]; 2 µM in [9]. In addition, the values for the IC50 (in the assay with Panc1-G12D; in [11]) were 2 µM and 8 µM, respectively.

Take `CCc1cc(C(=O)Nc2nc(-c3ccc4c(c3)CCC(=O)N4)cs2)n(C)n1` [Compound 24, 3-ethyl-1-methyl-N-(4-(2-oxo-1,2,3,4-tetrahydroquinolin-6-yl)thiazol-2-yl)-1H-pyrazole-5-carboxamide]: the EC50 in assay [1], in assay [2], in assay [4], in assay [5], in assay [7] and in assay [10] was greater than 25 µM throughout. In addition, in assay [12], the EC50 came out at 13 µM. The IC50 in the assay with HCT116-G31D was greater than 25 µM; against K-Ras G12D it was 9.9 µM; in assay [6], greater than 25 µM; with Panc10.05-G12D, 2.76 µM; against wild type K-Ras, 7.6 µM; in assay [8], greater than 25 µM. For the same compound, the figures for the IC50 (in assay [9]; in the assay on Panc1-G12D; in assay [11]) were greater than 25 µM, 0.672 µM and greater than 25 µM, respectively.

As for `Cc1nc(C)c(C(=O)Nc2nc(-c3ccc4c(c3)CCC(=O)N4Cc3nnn[nH]3)cs2)o1` [Compound 109, N-(4-(1-((1H-tetrazol-5-yl)methyl)-2-oxo-1,2,3,4-tetrahydroquinolin-6-yl)thiazol-2-yl)-2,4-dimethyloxazole-5-carboxamide], the EC50 in assay [1], in assay [2], in assay [3], in assay [4], in assay [5] and in assay [7] was greater than 25 µM throughout. For the same compound, the EC50 in assay [10] and in assay [12] was greater than 25 µM in each case. The IC50 (in the assay on HCT116-G31D; in assay [6]; in the assay on Panc10.05-G12D; in assay [8]; in assay [9]; in the assay with Panc1-G12D) was greater than 25 µM each time. Further, the IC50 in [11] is greater than 25 µM.
